In the NIST ThermoML archive (doi:10.1016/j.jct.2012.03.003):
± gives the expanded uncertainty stated by the source.

Assay: xn = mol fraction of the nth substance listed
Conditions: Liquid, Vibrating tube method

## COc1cc2c(cc1O)CC1c3c(cc(O)c(OC)c3-2)CCN1C (stereo not given) [boldine] + CCO
323.04 K, 16000 kPa, x1 = 0.0074
  mass density: 793.69 ± 0.9 kg/m3
323.04 K, 16000 kPa, x1 = 0.0196
  mass density: 821.98 ± 0.86 kg/m3
323.04 K, 17000 kPa, x1 = 0.0074
  mass density: 794.55 ± 0.9 kg/m3
323.04 K, 17000 kPa, x1 = 0.0196
  mass density: 822.81 ± 0.86 kg/m3
323.04 K, 18000 kPa, x1 = 0.0074
  mass density: 795.4 ± 0.9 kg/m3
323.04 K, 18000 kPa, x1 = 0.0196
  mass density: 823.62 ± 0.86 kg/m3
323.04 K, 19000 kPa, x1 = 0.0074
  mass density: 796.23 ± 0.91 kg/m3
323.04 K, 19000 kPa, x1 = 0.0196
  mass density: 824.42 ± 0.86 kg/m3
323.04 K, 20000 kPa, x1 = 0.0074
  mass density: 797.04 ± 0.91 kg/m3
323.04 K, 20000 kPa, x1 = 0.0196
  mass density: 825.2 ± 0.87 kg/m3
323.05 K, 1000 kPa, x1 = 0.0267
  mass density: 820.88 ± 0.7 kg/m3
323.05 K, 2000 kPa, x1 = 0.0267
  mass density: 821.74 ± 0.7 kg/m3
323.05 K, 3000 kPa, x1 = 0.0267
  mass density: 822.62 ± 0.7 kg/m3
323.05 K, 4000 kPa, x1 = 0.0267
  mass density: 823.5 ± 0.7 kg/m3
323.05 K, 5000 kPa, x1 = 0.0267
  mass density: 824.37 ± 0.7 kg/m3
323.05 K, 6000 kPa, x1 = 0.0267
  mass density: 825.26 ± 0.71 kg/m3
323.05 K, 7000 kPa, x1 = 0.0267
  mass density: 826.15 ± 0.71 kg/m3
323.05 K, 8000 kPa, x1 = 0.0267
  mass density: 827.02 ± 0.71 kg/m3
323.05 K, 9000 kPa, x1 = 0.0267
  mass density: 827.89 ± 0.71 kg/m3
323.05 K, 10000 kPa, x1 = 0.0267
  mass density: 828.78 ± 0.71 kg/m3
323.05 K, 11000 kPa, x1 = 0.0267
  mass density: 829.64 ± 0.71 kg/m3
323.05 K, 12000 kPa, x1 = 0.0267
  mass density: 830.5 ± 0.71 kg/m3
323.05 K, 13000 kPa, x1 = 0.0267
  mass density: 831.36 ± 0.72 kg/m3
323.05 K, 14000 kPa, x1 = 0.0267
  mass density: 832.21 ± 0.72 kg/m3
323.05 K, 15000 kPa, x1 = 0.0267
  mass density: 833.04 ± 0.72 kg/m3
323.05 K, 16000 kPa, x1 = 0.0267
  mass density: 833.87 ± 0.72 kg/m3
323.05 K, 17000 kPa, x1 = 0.0267
  mass density: 834.68 ± 0.72 kg/m3
323.05 K, 18000 kPa, x1 = 0.0267
  mass density: 835.48 ± 0.73 kg/m3
323.05 K, 19000 kPa, x1 = 0.0267
  mass density: 836.27 ± 0.73 kg/m3
323.05 K, 20000 kPa, x1 = 0.0267
  mass density: 837.04 ± 0.73 kg/m3
323.11 K, 1000 kPa, x1 = 0.0136
  mass density: 793.39 ± 0.96 kg/m3
323.11 K, 2000 kPa, x1 = 0.0136
  mass density: 794.29 ± 0.96 kg/m3
323.11 K, 3000 kPa, x1 = 0.0136
  mass density: 795.2 ± 0.96 kg/m3
323.11 K, 4000 kPa, x1 = 0.0136
  mass density: 796.12 ± 0.96 kg/m3
323.11 K, 5000 kPa, x1 = 0.0136
  mass density: 797.04 ± 0.96 kg/m3
323.11 K, 6000 kPa, x1 = 0.0136
  mass density: 797.96 ± 0.96 kg/m3
323.11 K, 7000 kPa, x1 = 0.0136
  mass density: 798.88 ± 0.96 kg/m3
323.11 K, 8000 kPa, x1 = 0.0136
  mass density: 799.8 ± 0.96 kg/m3
323.11 K, 9000 kPa, x1 = 0.0136
  mass density: 800.72 ± 0.97 kg/m3
323.11 K, 10000 kPa, x1 = 0.0136
  mass density: 801.63 ± 0.97 kg/m3
323.11 K, 11000 kPa, x1 = 0.0136
  mass density: 802.53 ± 0.97 kg/m3
323.11 K, 12000 kPa, x1 = 0.0136
  mass density: 803.44 ± 0.97 kg/m3
323.11 K, 13000 kPa, x1 = 0.0136
  mass density: 804.33 ± 0.97 kg/m3
323.11 K, 14000 kPa, x1 = 0.0136
  mass density: 805.21 ± 0.97 kg/m3
323.11 K, 15000 kPa, x1 = 0.0136
  mass density: 806.08 ± 0.97 kg/m3
323.11 K, 16000 kPa, x1 = 0.0136
  mass density: 806.95 ± 0.97 kg/m3
323.11 K, 17000 kPa, x1 = 0.0136
  mass density: 807.79 ± 0.98 kg/m3
323.11 K, 18000 kPa, x1 = 0.0136
  mass density: 808.63 ± 0.98 kg/m3
323.11 K, 19000 kPa, x1 = 0.0136
  mass density: 809.44 ± 0.98 kg/m3
323.11 K, 20000 kPa, x1 = 0.0136
  mass density: 810.25 ± 0.98 kg/m3
332.92 K, 1000 kPa, x1 = 0.0012
  mass density: 757.69 ± 0.86 kg/m3
332.92 K, 2000 kPa, x1 = 0.0012
  mass density: 758.72 ± 0.86 kg/m3
332.92 K, 3000 kPa, x1 = 0.0012
  mass density: 759.75 ± 0.87 kg/m3
332.92 K, 4000 kPa, x1 = 0.0012
  mass density: 760.77 ± 0.87 kg/m3
332.92 K, 5000 kPa, x1 = 0.0012
  mass density: 761.81 ± 0.87 kg/m3
332.92 K, 6000 kPa, x1 = 0.0012
  mass density: 762.85 ± 0.87 kg/m3
332.92 K, 7000 kPa, x1 = 0.0012
  mass density: 763.86 ± 0.87 kg/m3
332.92 K, 8000 kPa, x1 = 0.0012
  mass density: 764.88 ± 0.87 kg/m3
332.92 K, 9000 kPa, x1 = 0.0012
  mass density: 765.9 ± 0.88 kg/m3
332.92 K, 10000 kPa, x1 = 0.0012
  mass density: 766.9 ± 0.88 kg/m3
332.92 K, 11000 kPa, x1 = 0.0012
  mass density: 767.9 ± 0.88 kg/m3
332.92 K, 12000 kPa, x1 = 0.0012
  mass density: 768.88 ± 0.88 kg/m3
332.92 K, 13000 kPa, x1 = 0.0012
  mass density: 769.87 ± 0.88 kg/m3
332.92 K, 14000 kPa, x1 = 0.0012
  mass density: 770.83 ± 0.89 kg/m3
332.92 K, 15000 kPa, x1 = 0.0012
  mass density: 771.78 ± 0.89 kg/m3
332.92 K, 16000 kPa, x1 = 0.0012
  mass density: 772.72 ± 0.89 kg/m3
332.92 K, 17000 kPa, x1 = 0.0012
  mass density: 773.63 ± 0.89 kg/m3
332.92 K, 18000 kPa, x1 = 0.0012
  mass density: 774.53 ± 0.9 kg/m3
332.92 K, 19000 kPa, x1 = 0.0012
  mass density: 775.42 ± 0.9 kg/m3
332.92 K, 20000 kPa, x1 = 0.0012
  mass density: 776.29 ± 0.9 kg/m3
332.93 K, 1000 kPa, x1 = 0.0074
  mass density: 770.77 ± 0.88 kg/m3
332.93 K, 2000 kPa, x1 = 0.0074
  mass density: 771.77 ± 0.88 kg/m3
332.93 K, 3000 kPa, x1 = 0.0074
  mass density: 772.79 ± 0.89 kg/m3
332.93 K, 4000 kPa, x1 = 0.0074
  mass density: 773.79 ± 0.89 kg/m3
332.93 K, 5000 kPa, x1 = 0.0074
  mass density: 774.8 ± 0.89 kg/m3
